According to patent US20220298145A1, “BRAF INHIBITORS AS PARADOX BREAKERS” (Hoffmann-La Roche Inc., priority 2019, published 2022):

Assays:
[1] = biological target: BRAF (V600E) (Homo sapiens, UniProt P15056, V600E); assay: Kd for RAF kinases: BRAF (V600E); format: binding
[2] = biological target: BRAF (Homo sapiens, UniProt P15056); assay: Kd for RAF kinases: BRAF; format: binding
[3] = biological target: CRAF (Homo sapiens, UniProt P04049); assay: Kd for RAF kinases: CRAF; format: binding
[4] = test system: ERK 1,2 phosphorylation in A375 cells expressing V600E mutated BRAF; assay: HTRF assay for P-ERK determination in A375 cells (BRAF inhibition); format: cell-based; details: Homo sapiens, A-375, 1 h, read-out: pERK IC50 A375
Source text: (§1) DMEM no-phenol red medium supplemented with L-glutamine was purchased from (Thermo Fisher Scientific). Fetal bovine serum (FBS) was purchased from VWR. Advanced ERK phospho-T202/Y204 kit-10,000 tests was purchased from Cisbio cat #64AERPEH. A375 and HCT116 cells were originally obtained from ATCC and banked by the Roche repository.
A375 is a cellular cancer model expressing V600E mutated BRAF and HCT116 a cellular cancer model expressing WT BRAF. […] ERK 1,2 phosphorylation (terminal member of the phosphorylation cascade of the MAPK pathway) is hereafter reported as main readout for the activation status of the MAPK pathway. Prior to the assay, A375 and HCT116 cell lines are maintained in DMEM no-phenol red medium supplemented with 10% fetal bovine serum (FBS). […] Briefly, 8000 cells/well in 12 μl media/well are plated in the 384-well plate and left overnight in the incubator (at 37° C. with 5% CO2-humidified atmosphere), the following day the plate is treated in duplicate with test compounds, dabrafenib and PLX8394 (the latter two as controls) at the following final drug concentrations: 10 μM-3 μM-1 μM-0.3 μM-0.1 μM-0.03 μM-0.01 μM-0.003 μM-0.001 μM, all wells are subjected to DMSO normalization and drug incubation occurs for 1 hour. Then, 4 μl of a 4× lysis buffer supplied with the kit are added to the wells, the plate is then centrifuged for 30 second (300 rcf) and incubated on a plate shaker for 1 h at RT.
(§2) At the end of the incubation 4 μL/well of advanced P-ERK antibody solution (prepared according to manufacturer's instruction) followed by 4 μL/well of criptate P-ERK antibody solution (prepared according to manufacturer's instruction) (Cisbio cat #64AERPEH) are added to test wells.
(§3) In order to allow proper data normalization control wells non drug treated reported in the following table are always included in each plate (according to manufacturer's instruction):
(§4) The plate is then centrifuged at 300 rcf for 30 second, sealed to prevent evaporation and incubated overnight in the dark at room temperature.
(§5) The obtained fluorescence values are processed according to the formula Ratio=Signal (620 nm)/Signal (625 nm)*10000 then the average of the ratio on the blank is subtracted to all values.
Data are normalized in the case of A375 cells (BRAF inhibition) considering the average of the ratio (blank subtracted) derived by DMSO only treated cells as 100% and by considering the average of the ratio (blank subtracted) derived by 10 uM dabrafenib treated cells as 0%. Mean of the normalized points are fitted with sigmoidal curve and IC50 determined.

[5] = test system: ERK 1,2 phosphorylation in HCT116 cells expressing WT BRAF; assay: HTRF assay for P-ERK determination in HCT116 cells (paradoxical BRAF activation); format: cell-based; details: for Emax: Homo sapiens, HCT-116, read-out: Percentage of maximum paradox inducing effect from dabrafenib; for EC50: read-out: P-ERK EC50 conc. at which the compound induces p-ERK activation of 50% of that induced by dabrafenib (Positive control paradox inducer) HCT-116, HCT-116 cells, 1 hour drug incubation, not applicable = activation does not reach 50% of dabrafenib maximum
Source text: as §1, with “repository. 384-well microplates were purchased from Greiner Bio-One, 384-well, (With Lid, HiBase, Low volume cat 784-080).” for “repository.”
A375 is a cellular cancer model expressing V600E mutated BRAF and HCT116 a cellular cancer model expressing WT BRAF. First generation BRAF inhibitors such as e.g. dabrafenib induce a paradox effect on tumour cells in that they inhibit the growth of V600E mutated BRAF cells (such as e.g. A375), while they activate growth in WT BRAF cells (such as e.g. HCT 116). ERK 1,2 phosphorylation (terminal member of the phosphorylation cascade of the MAPK pathway) is hereafter reported as main readout for the activation status of the MAPK pathway. Prior to the assay, A375 and HCT116 cell lines are maintained in DMEM no-phenol red medium supplemented with 10% fetal bovine serum (FBS). Following compound treatment, P-ERK levels are determined by measuring FRET fluorescence signal induced by selective binding of 2 antibodies provided in the mentioned kit (Cisbio cat #64AERPEH) on ERK protein when phosphorylated at Thr202/Tyr204. Briefly, 8000 cells/well in 12 μl media/well are plated in the 384-well plate and left overnight in the incubator (at 37° C. with 5% CO2-humidified atmosphere), the following day the plate is treated in duplicate with test compounds, dabrafenib and PLX8394 (the latter two as controls) at the following final drug concentrations: 10 μM-3 μM-1 μM-0.3 μM-0.1 μM-0.03 μM-0.01 μM-0.003 μM-0.001 μM, all wells are subjected to DMSO normalization and drug incubation occurs for 1 hour. Then, 4 μl of a 4× lysis buffer supplied with the kit are added to the wells, the plate is then centrifuged for 30 second (300 rcf) and incubated on a plate shaker for 1 h at RT.
as §2, §3, §4
The plate is then analyzed and fluorescence emission value collected through a Pherastast FSX (BMG Labtech) apparatus at […].
as §5
Data are normalized in the case of HCT116 cells (BRAF activation) considering the average of the ratio (blank subtracted) derived by DMSO only treated cells as 0% and by considering the average of the ratio (blank subtracted) derived by dabrafenib treated cells at the concentration which provides the highest signal as 100%. Individual points are fitted with either sigmoidal or bell shape curves, and the percentage of activation compared to maximum dabrafenib-mediated activation is determined. The EC50 is the concentration at which activation equal to 50% of the maximum achieved by dabrafenib is obtained.
The Percentage of Maximum paradox inducing effect from dabrafenib is determined by evaluating the percentage at which the test compound induce its maximum P-ERK signal as percentage of the highest signal produced by dabrafenib within the dose range tested.

CRAF, sequence (P04049 whole entry): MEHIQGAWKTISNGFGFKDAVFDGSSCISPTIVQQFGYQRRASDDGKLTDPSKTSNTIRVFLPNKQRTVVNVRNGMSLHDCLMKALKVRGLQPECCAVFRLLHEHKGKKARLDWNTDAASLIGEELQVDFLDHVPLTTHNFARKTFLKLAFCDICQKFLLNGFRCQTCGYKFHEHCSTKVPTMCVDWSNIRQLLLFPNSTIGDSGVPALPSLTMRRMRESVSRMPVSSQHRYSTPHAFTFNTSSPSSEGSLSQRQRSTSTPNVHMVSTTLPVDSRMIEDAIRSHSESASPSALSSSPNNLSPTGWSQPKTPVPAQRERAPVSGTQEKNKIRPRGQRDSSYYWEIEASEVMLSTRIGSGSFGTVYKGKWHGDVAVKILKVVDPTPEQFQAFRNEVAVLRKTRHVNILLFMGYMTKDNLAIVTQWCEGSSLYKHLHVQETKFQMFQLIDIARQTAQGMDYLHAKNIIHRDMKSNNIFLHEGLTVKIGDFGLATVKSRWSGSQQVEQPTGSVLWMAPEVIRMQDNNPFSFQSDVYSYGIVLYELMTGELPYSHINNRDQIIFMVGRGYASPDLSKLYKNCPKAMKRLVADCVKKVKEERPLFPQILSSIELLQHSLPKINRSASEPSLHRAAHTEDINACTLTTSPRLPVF
BRAF (V600E), sequence (P15056 whole entry V600E): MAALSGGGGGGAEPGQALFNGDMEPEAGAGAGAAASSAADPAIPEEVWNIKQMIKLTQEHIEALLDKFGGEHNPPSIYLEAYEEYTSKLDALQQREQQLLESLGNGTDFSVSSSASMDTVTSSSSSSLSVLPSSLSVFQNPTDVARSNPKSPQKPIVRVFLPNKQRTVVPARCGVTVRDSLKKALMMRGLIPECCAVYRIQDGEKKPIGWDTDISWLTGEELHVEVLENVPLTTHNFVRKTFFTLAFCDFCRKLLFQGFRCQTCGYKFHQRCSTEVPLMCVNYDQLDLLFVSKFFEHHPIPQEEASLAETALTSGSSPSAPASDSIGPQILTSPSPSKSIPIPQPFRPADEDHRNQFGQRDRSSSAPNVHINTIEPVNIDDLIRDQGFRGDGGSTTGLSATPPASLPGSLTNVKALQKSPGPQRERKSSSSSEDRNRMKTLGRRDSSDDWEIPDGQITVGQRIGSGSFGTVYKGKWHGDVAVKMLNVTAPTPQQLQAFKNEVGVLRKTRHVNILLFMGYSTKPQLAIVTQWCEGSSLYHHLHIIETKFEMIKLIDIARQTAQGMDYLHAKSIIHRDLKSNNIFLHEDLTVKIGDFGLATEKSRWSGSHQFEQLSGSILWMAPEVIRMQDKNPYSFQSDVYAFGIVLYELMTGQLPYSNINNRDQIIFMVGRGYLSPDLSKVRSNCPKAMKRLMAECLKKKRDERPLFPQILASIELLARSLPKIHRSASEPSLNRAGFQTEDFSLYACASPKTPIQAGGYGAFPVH
BRAF, sequence (P15056 whole entry): as the sequence (P15056 whole entry V600E) above, with E600V counted along it

Structure (SMILES)	Kd [1] [µM]	Kd [2] [µM]	Kd [3] [µM]	IC50 [4] [µM]	Emax [5] [%]	EC50 [5] [µM]
Cn1cnc2ccc(Oc3cccc(NS(=O)(=O)N4CCCC4)c3C#N)cc2c1=O [Example 6, N-[2-cyano-3-(3-methyl-4-oxo-quinazolin-6-yl)oxy-phenyl]pyrrolidine-1-sulfonamide]	0.0026	0.0016	0.0011	0.0171	59	0.648
CCN(C)S(=O)(=O)Nc1cccc(Oc2ccc3ncn(C)c(=O)c3c2)c1C#N [Example 5, 6-[2-cyano-3-[[ethyl(methyl)sulfamoyl]amino]phenoxy]-3-methyl-4-oxo-quinazoline]	0.0323	0.0106	0.0072	0.0525	61	> 1
